Entries after “also recorded” stand apart in the source; their conditions may differ. Where two headings read alike, the source gives them in different places. Marks after values point to notes of the source that are not given here.
Key:
Sprague-Dawley rats [1] = assay: animal or person
Procedure: (§1) Adult male Sprague-Dawley rats (250-300 g) were selected for the experiment. […] The anesthesia effects of the compounds were assessed in rats using a LORR assay and a period >30 s was considered as an indicator of general anesthesia.

Sprague-Dawley rats [2] = assay: animal or person; remark: listed apart in the source
Procedure: as §1

[3] = system: circulatory function of rats; settings: rat, in vivo
Procedure: First, animal models were established. […] At least one week after surgery, data were recorded.
Finally, the pharmacological effects, adverse reactions, and behavioral manifestations of the rats were observed and recorded
After data acquisition, the test was stopped.

Sprague-Dawley rats [4] = type: in vivo; settings: tail vein
Sprague-Dawley rats [5] = assay: animal or person; type: in vivo; settings: rats
Excerpt: (§2) Evaluating indicator: The end point of anesthesia: LORR was used as the end point of anesthesia; General anesthesia effect: the disappearance of forepaw righting reflex in rats lasting for 30 seconds is taken as the index of general anesthesia effect; Anesthesia recovery index: the recovery of rat forepaw righting reflex was used as the index of anesthesia recovery.

SD rats [6] = system: SD rats
Procedure: (§3) Experimental Methods: Adult male SD rats with body weight ranging from 250 g to 350 g were selected for continuous infusion test.
(§4) Evaluation indexes: the time from the beginning of continuous infusion to the […] of sedation in rats; the time from the cessation of infusion to the restoration of the forepaw turning reflex after 1 hour of continuous infusion; the time from the cessation of infusion to the complete restoration of rats after 1 hour of continuous infusion.

Sprague-Dawley rats [7] = assay: Pharmacological characteristics at equivalent doses (2ED50), Group A compounds; type: in vivo; settings: 2ED50, tail vein
H295R cell line [8] = assay: Adrenocortical function in vitro test: secretion of cortisol and corticosterone, Group B compounds; type: cell-based; settings: H295R cells; for EC50: 0.1-10000 nM, HPLC-MS/MS
SD rats [9] = system: SD rats; remark: listed apart in the source
Procedure: as §3, §4

Sprague-Dawley rats [10] = assay: Pharmacological effect and adverse reactions under the equivalent dose (2ED50), Group D compounds; type: in vivo
Excerpt: (§5) Evaluation index: onset time: from the completion of drug injection to the disappearance of forepaw righting reflex in rats; Duration of anesthesia: the time from the disappearance of rat forepaw righting reflex to the recovery of rat forepaw righting reflex; Recovery time of anesthesia: the time from the […] to complete recovery;

Sprague-Dawley rats [11] = type: in vivo; settings: tail vein; remark: listed apart in the source
Sprague-Dawley rats [12] = assay: Continuous infusion at 2 times the MIR for 1 hour, Group B compounds; type: in vivo
Sprague-Dawley rats [13] = assay: Pharmacological effect and adverse reactions under the equivalent dose (2ED50), Group C compounds; type: in vivo
Excerpt: as §5

Sprague-Dawley rats [14] = assay: animal or person; type: in vivo; settings: rats; remark: listed apart in the source
Excerpt: as §2, with “the disappearance of forepaw righting reflex (lorr)” for “LORR”

Sprague-Dawley rats [15] = system: Sprague-Dawley rats
Procedure: Adult male Sprague-Dawley rats with body weight ranging from 250 to 300 gm were selected for continuous infusion test. […] Time to recovery of righting reflex from stopping infusion, and time to fully awake from stopping infusion were recorded.

H295R cell line [16] = assay: Adrenocortical function in vitro test: secretion of cortisol and corticosterone, Group A compounds; type: cell-based; settings: H295 cells; for EC50: 0.1-10000 nM, HPLC-MS/MS
[17] = LORR in rats, tail vein, brackets = 95% confidence limit
[18] = LORR, up and down method, tail vein, brackets = 95% confidence limit
[19] = after 1 hour continuous infusion at 2 times the MIR, SD rats
[20] = continuous infusion 2 x MIR 1 hour, rats affected/rats
[21] = continuous tail vein infusion at 2 times the MIR, SD rats
[22] = read-out: EC50 (Corticosterone)
[23] = 2ED50, tail vein, rats, n=8, unit s
[24] = equivalent dose (2 × ED50), number of rats of n = 8
[25] = equivalent dose (2ED50), number of rats of n = 8

COC(=O)C1(OC(=O)c2cncn2[C@H](C)c2ccccc2)CC1 [CPMM, cyclopropyl methoxycarbonyl metamidate, reference compound]
ED50 (Sprague-Dawley rats [1]; [17]): 0.78(0.74-0.82)* mg/kg
Approximate therapeutic index (Sprague-Dawley rats [1]; rats): >10
Minimal lethal dose (Sprague-Dawley rats [1]; rats): >7.8 mg/kg
ED50 (Sprague-Dawley rats [2]; [17]): 0.78(0.74-0.82)* mg/kg
Approximate therapeutic index (Sprague-Dawley rats [2]; rats): >10
Minimal lethal dose (Sprague-Dawley rats [2]; rats): >7.8 mg/kg
inhibitory effect on the circulatory function (MAP, HR) [3]: almost no inhibitory effect on the circulatory function
Minimal lethal dose (Sprague-Dawley rats [4]): 20.6 mg/kg
ED50 (Sprague-Dawley rats [5]; [18]): 0.49(0.45-0.53)* mg/kg
Approximate therapeutic index (Sprague-Dawley rats [5]): 42.0
After the infusion is stopped: Righting reflex recovery time (SD rats [6]; [19]): 8 to 10 min
Recovery time after stopping infusion (SD rats [6]; [19]): 10 to 15 min
Types and incidence of adverse reactions: Hindlimb rigidity (SD rats [6]; [20]): Hindlimb rigidity(4/6)
Types and incidence of adverse reactions: Red urine (SD rats [6]; [20]): 6/6
Types and incidence of adverse reactions: Tremor (SD rats [6]; [20]): 4/6
Sedation onset time (SD rats [6]; [21]): <5 min
Onset time (Sprague-Dawley rats [7]): 0.26 ± 0.08 min
Righting reflex duration (Sprague-Dawley rats [7]): 1.62 ± 0.63 min
Corticosterone as an indicator to determine the presence of inhibition (H295R cell line [8]): 1 (Mild inhibition (using CPMM as a control))
Cortisol as an indicator to determine the presence of inhibition (H295R cell line [8]): 1 (Mild inhibition (using CPMM as a control))
EC50 (H295R cell line [8]; [22]): > 100 nM
EC50 (H295R cell line [8]; read-out: EC50 (Cortisol)): > 10 nM
After the infusion is stopped: Righting reflex recovery time (SD rats [9]; [19]): 8 to 10 min
Recovery time after stopping infusion (SD rats [9]; [19]): 10 to 15 min
Types and incidence of adverse reactions: Hindlimb rigidity (SD rats [9]; [20]): Hindlimb rigidity(4/6)
Types and incidence of adverse reactions: Red urine (SD rats [9]; [20]): 6/6
Types and incidence of adverse reactions: Tremor (SD rats [9]; [20]): 4/6
Sedation onset time (SD rats [9]; [21]): <5 min
Righting reflex duration (Sprague-Dawley rats [10]; 2ED50, tail vein, rats, n=8): 2.71 ± 0.97 min
Sedation duration (Sprague-Dawley rats [10]; 2ED50, tail vein, rats, n=8): 8.48 ± 2.58 min
Onset time (Sprague-Dawley rats [10]; [23]): <30 s
Adverse reaction: Convulsions (Sprague-Dawley rats [10]; [24]): 0
Adverse reaction: Cough, broken-winded (Sprague-Dawley rats [10]; [24]): 0
Adverse reaction: Euphoria (Sprague-Dawley rats [10]; [24]): 0
Adverse reaction: Four limbs rigidity (Sprague-Dawley rats [10]; [24]): 2
Adverse reaction: Slower breathing, Tetany convulsion (Sprague-Dawley rats [10]; [24]): 0
Adverse reaction: Systemic stiffness, Convulsions, Opisthotonus (Sprague-Dawley rats [10]; [24]): 0
Adverse reaction: Tongue stretching (Sprague-Dawley rats [10]; [24]): 4
Adverse reaction: Tremor (Sprague-Dawley rats [10]; [24]): 2
Minimal lethal dose (Sprague-Dawley rats [11]): 20.6 mg/kg
Recovery time after stopping infusion (Sprague-Dawley rats [12]; after 1 hour continuous infusion at 2 times the MIR, rats): 7 to 8 min
Types and incidence of adverse reactions: Convulsions (Sprague-Dawley rats [12]; [20]): Convulsions (3/6), Tremor
Types and incidence of adverse reactions: Myoclonus (Sprague-Dawley rats [12]; [20]): (5/6), Myoclonus (5/6)
Types and incidence of adverse reactions: Tremor (Sprague-Dawley rats [12]; [20]): (5/6), Myoclonus (5/6)
Onset time (Sprague-Dawley rats [12]; continuous tail vein infusion at 2 times the MIR, emulsion, rats): 3 to 4 min
Righting reflex duration (Sprague-Dawley rats [13]; 2ED50, tail vein, rats, n=8): 2.71 ± 0.97 min
Sedation duration (Sprague-Dawley rats [13]; 2ED50, tail vein, rats, n=8): 8.48 ± 2.58 min
Onset time (Sprague-Dawley rats [13]; [23]): <30 s
Adverse reaction: Convulsions (Sprague-Dawley rats [13]; [25]): 0
Adverse reaction: Cough, broken-winded (Sprague-Dawley rats [13]; [25]): 0
Adverse reaction: Euphoria (Sprague-Dawley rats [13]; [25]): 0
Adverse reaction: Red urine (Sprague-Dawley rats [13]; [25]): 8
Adverse reaction: Slower breathing, Tetany convulsion (Sprague-Dawley rats [13]; [25]): 3
Adverse reaction: Systemic stiffness, Convulsions, Opisthotonus (Sprague-Dawley rats [13]; [25]): 0
Adverse reaction: Tongue stretching (Sprague-Dawley rats [13]; [25]): 4
Adverse reaction: Tremor (Sprague-Dawley rats [13]; [25]): 5
Adverse reaction: the four limbs rigidity (Sprague-Dawley rats [13]; [25]): 4
ED50 (Sprague-Dawley rats [14]; [18]): 0.49(0.45-0.53)* mg/kg
Approximate therapeutic index (Sprague-Dawley rats [14]): 42.0
Recovery time after stopping infusion (Sprague-Dawley rats [15]; LORR maintained for 1 hour, 2 times the MIR): 7 to 8 min
Onset time (Sprague-Dawley rats [15]; continuous infusion, 2 times the MIR): 3 to 4 min
Types and incidence of adverse reactions (Sprague-Dawley rats [15]; continuous infusion, (animals affected/animals)): Convulsions(3/6),; also recorded: Tremor(5/6),; also recorded: Myoclonus(5/6),
Corticosterone as an indicator to determine the presence of inhibition (H295R cell line [16]): 1 (Mild inhibition (using CPMM as a control))
Cortisol as an indicator to determine the presence of inhibition (H295R cell line [16]): 1 (Mild inhibition (using CPMM as a control))
EC50 (H295R cell line [16]; [22]): > 100 nM
EC50 (H295R cell line [16]; read-out: EC50 (Cortisol)): > 10 nM
